In US20220259265A1, “Inhibitors and Use Thereof in Cancer Treatment” (The University of Sydney, priority 2019, published 2022):
Values belong to the compound of their own block, whether it stands above or below them. Ends that are not written are not given here. Peptide text beside a SMILES is read from it. * marks the point of attachment. 5TAMRA = CN(C)c1ccc2c(c1)Oc1cc(N(C)C)ccc1C21OC(=O)c2cc(C(=O)*)ccc21

Experiments:
[1] = tested on: IGFBP-3-NONO complexes in MDA-MB-468 cells; assay: Proximity ligation assay (PLA), MDA-MB-468 cells; type: cell-based, human
Method: (§1) PLA was performed using the Duolink Detection Kit (Olink Bioscience Uppsala, Sweden) as previously described (Lin M Z et al., Oncogene, 2014, 33, 85-96). Briefly, cells were grown on 8-mm glass coverslips to 50% confluency, treated, and prepared for microscopy by fixing, permeabilizing and blocking. Coverslips were incubated with primary antibody pairs (raised in different species) targeting the proteins under investigation overnight at 4° C. […]; NONO (as above) and […]; IGFBP-3 (as above), 1:100. This was followed by incubation with PLA probes MINUS and PLUS for 1 h at 37° C., probe ligation for 30 min at 37° C. and amplification over 100 min at 37° C. Interactions were detected as amplified far-red signals using a Leica TCS SP5 confocal microscope (Leica Microsystems, Wetzlar, Germany) and quantitated using Image J software.

[2] = tested on: IGFBP-3-NONO complexes in HCC1806 cells; assay: Proximity ligation assay (PLA), HCC1806 cells; type: cell-based, human
Method: as §1

[3] = tested on: DNA end-joining activity in MDA-MB-468 cells; assay: DNA end-joining assay, nuclear extracts of treated MDA-MB-468 cells; type: cell-based, human
Method: (§2) Nuclear extraction and end-joining assay was performed as previously described (Andrin C et al., J Blot Chem., 2004, 279, 25017-25023; Andrin C et al., Nucleus., 2012, 3, 384-395) with slight modifications. […] After isolation of nuclei by centrifugation through a buffer containing 300 mM sucrose, the washed nuclear pellet was extracted into high-salt buffer (20 mM Hepes, pH 7.5, 25% glycerol, 420 mM NaCl, 0.2 mM EDTA, 1.5 mM MgCl2) for 30 min on ice, and insoluble material was removed by centrifugation. The soluble nuclear extract was used in the end-joining assay. Restriction enzymes NheI and EcoRI (New England Biolabs, Ipswich, Mass., USA) were used to digest a EGFP-C1 plasmid (Clontech, Mountain View, Calif., USA) to generate a DNA fragment of 4 kb with non-homologous ends. The linearized plasmid was separated by 0.8% agarose gel electrophoresis, purified using a DNA gel extraction kit (Qiagen), and used as the substrate for end-joining assays. Nuclear extract (2 μg) was mixed with end-joining assay buffer (7.5 mM Tris pH 8.0, 0.2 mM CaCl2, 10 mM MgCl2, 50 mM KCl, 1.2 mM ATP and 0.5 mM DTT) and allowed to stand for 30 min at 22° C. Repair was initiated by adding 100 ng of prepared linearized DNA and incubated at 25° C. for 30 min, stopped by the addition of 0.5 M EDTA, 0.5% SDS and 10 mg/mL Proteinase K. DNA bands were separated on a 0.7% agarose gel, stained with SYBR Gold (Life Technologies), and visualized on a BioRad ChemiDoc imaging system.

[4] = tested on: γH2AX (DNA double-strand breaks) in MDA-MB-468 cells; assay: γH2AX immunofluorescence, MDA-MB-468 cells; type: cell-based, human; settings: olaparib 10 μM or veliparib 20 μM pre-treatment, etoposide 1 h (T0), 4 h recovery (T4)
Method: (§3) The human basal-like triple negative breast cancer (TNBC) cell lines MDA-MB-468 and HCC1806 were obtained from ATCC, Manassas, Va. and maintained in RPMI 1640 medium containing 5% FBS and 10 μg/mL bovine insulin under standard conditions. Cryopreserved stocks were established within 1 month of receipt, and fresh cultures for use in experiments were established from these stocks every 2 to 3 months.
(§4) Cells grown on 8-mm glass coverslips were washed three times with PBS, fixed with 4% paraformaldehyde for 15 min, permeabilized with 0.2% Triton X-100 for 5 min and blocked with 2% BSA for 1 h. Cells were then incubated with rabbit anti-phospho-histone γH2A.X (Ser139) (1:200; Cell Signaling Technology, #9718) overnight at 4° C., washed, and further incubated with anti-rabbit secondary antibody, tagged with Alexa Fluor 594 (Life Technologies, Carlsbad, Calif., USA). For controls, cells were treated with isotype-matched IgG from the same species. Slides were mounted using ProLong Gold Antifade Reagent (Life Technologies). […] Data were calculated from three replicate experiments.

[5] = tested on: γH2AX (DNA double-strand breaks) in HCC1806 cells; assay: γH2AX immunofluorescence, HCC1806 cells; type: cell-based, human; settings: olaparib 10 μM or veliparib 20 μM pre-treatment, etoposide 1 h (T0), 4 h recovery (T4)
Method: as §3, §4

[6] = tested on: DNA end-joining activity in HCC1806 cells; assay: DNA end-joining assay, nuclear extracts of treated HCC1806 cells; type: cell-based, human
Method: as §2, with “Repair was initiated by adding 100 ng of prepared linearized DNA and incubated at 25° C. for 30 min, stopped by the addition of 0.5 M EDTA, 0.5% SDS and 10 mg/mL Proteinase K. DNA bands were separated on a 0.7% agarose gel, stained with SYBR Gold (Life Technologies), and visualized on a BioRad ChemiDoc imaging system.” left out

[7] = tested on: HCC1806 breast cancer cells; assay: Nuclear uptake of 5-TAMRA-labelled peptide, confocal microscopy (fixed and live cell imaging); type: cell-based, human
Method: The peptide was synthesised with the fluorescent dye 5-TAMRA (5-carboxytetramethyl-rhodamine) covalently bound at its amino-terminus. Since under some circumstances the fixation of cells prior to imaging may introduce artefacts, experiments were performed to detect the localisation of the peptide both with and without fixation of the cells. […] At the indicated time points, cells were washed three times with PBS, fixed with 4% paraformaldehyde for 15 min, washed three times and mounted on slides using ProLong Gold Antifade Reagent containing the nuclear stain DAPI (Life Technologies). Confocal fluorescence images were captured with a Leica TCS SP5 confocal laser scanning microscope (Leica Microsystems, Wetzlar, Germany). Live cell imaging (FIG. 8b): HCC1806 cells were plated in an 8-well chamber slide (Nunc Lab-Tek, Sigma Aldrich); 0.1 mg/mL Hoechst nuclear stain (Life Technologies) was added to the cells for 15 mins and imaged (0 min time point) using Leica TCS SP5 confocal microscope. […] Images were taken at the times indicated.

[8] = molecular target: T1, IGFBP-3 complexes with NONO (NONO/SFPQ) in MDA-MB-468 cells (Homo sapiens, UniProt Q15233); assay: Co-immunoprecipitation with IGFBP-3-Fab beads and western blotting, MDA-MB-468 cells; type: cell-based; settings: 24 h preincubation with veliparib 20 μM or olaparib 10 μM prior to 20 μM etoposide
T1 construct: endogenous in cells; host or cells: MDA-MB-468; HCC1806
T1 sequence (Q15233 1-471): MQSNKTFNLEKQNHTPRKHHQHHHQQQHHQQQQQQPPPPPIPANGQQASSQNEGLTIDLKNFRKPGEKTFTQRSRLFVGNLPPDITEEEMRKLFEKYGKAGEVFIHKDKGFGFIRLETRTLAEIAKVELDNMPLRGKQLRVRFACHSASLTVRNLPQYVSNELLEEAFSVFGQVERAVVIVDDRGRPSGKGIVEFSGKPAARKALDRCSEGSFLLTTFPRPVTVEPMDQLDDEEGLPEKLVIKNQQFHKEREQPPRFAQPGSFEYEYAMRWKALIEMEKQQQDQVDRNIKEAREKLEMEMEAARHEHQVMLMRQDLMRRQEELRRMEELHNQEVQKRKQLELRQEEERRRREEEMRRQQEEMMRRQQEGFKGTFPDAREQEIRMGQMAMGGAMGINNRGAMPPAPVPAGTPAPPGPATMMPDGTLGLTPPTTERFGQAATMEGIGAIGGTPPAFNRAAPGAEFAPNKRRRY
T1 sequence (P23246 1-707 partner): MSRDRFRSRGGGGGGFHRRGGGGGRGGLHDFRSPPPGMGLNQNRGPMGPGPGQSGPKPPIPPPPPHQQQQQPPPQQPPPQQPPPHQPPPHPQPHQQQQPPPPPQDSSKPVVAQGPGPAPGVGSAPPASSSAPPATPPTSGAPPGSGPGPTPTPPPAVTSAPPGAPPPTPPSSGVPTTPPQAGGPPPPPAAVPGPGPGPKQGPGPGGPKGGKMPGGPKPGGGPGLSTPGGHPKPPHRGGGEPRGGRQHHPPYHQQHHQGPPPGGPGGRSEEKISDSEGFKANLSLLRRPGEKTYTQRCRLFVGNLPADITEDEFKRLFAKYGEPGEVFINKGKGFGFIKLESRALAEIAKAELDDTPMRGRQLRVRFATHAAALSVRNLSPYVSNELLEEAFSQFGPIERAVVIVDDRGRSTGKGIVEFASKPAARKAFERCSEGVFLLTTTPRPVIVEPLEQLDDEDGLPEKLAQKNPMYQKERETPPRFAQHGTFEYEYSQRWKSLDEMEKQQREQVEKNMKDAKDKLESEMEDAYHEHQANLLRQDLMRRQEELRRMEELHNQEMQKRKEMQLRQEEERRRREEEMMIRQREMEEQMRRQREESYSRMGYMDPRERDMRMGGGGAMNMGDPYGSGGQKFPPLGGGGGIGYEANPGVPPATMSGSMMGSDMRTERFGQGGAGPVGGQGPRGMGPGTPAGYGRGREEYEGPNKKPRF
Method: as §3

[9] = tested on: HCC1806 breast cancer cells; assay: 14-day colony formation or clonogenic survival assay; type: cell-based, human; settings: veliparib 5 μM
Method: HCC1806 cells (500 cells/well) were plated in 6-well plates for 24 h prior to being treated with or without 5 μM of PARPi (veliparib) for a further 24 h. […] Colonies were washed with PBS and stained using 0.5% Crystal Violet (Sigma Aldrich) in 20% methanol for 30 min prior to rinsing with water. Colonies, defined as clusters of at least 30 cells, were imaged and counted with an AID vSpot Spectrum imager (AutoImmun Diagnostika GmbH, Strassberg, Germany).
The 14-day colony formation or clonogenic survival assay measures the ability of cells to survive 2 days of chemotherapy-induced DNA damage, and form colonies of at least 30 cells over the next 12 days. […] The purpose was to find conditions under which the cells become more sensitive to this low dose of chemotherapy.

[10] = tested on: γH2AX signal in MDA-MB-468 cells; assay: γH2AX response to etoposide after peptide incubation (blot), MDA-MB-468 cells; type: cell-based, human; settings: 16 h incubation with peptide at 10 μM, 25 μM etoposide
Method: (§5) An elevated γH2AX signal is indicative of sustained DNA damage (i.e. inhibition of DNA repair) compared to the control cells. Peptide #66 was also evaluated in the presence of PARP inhibitors, veliparib (ABT-888) and olaparib (Lynparza). In FIG. 5e and FIG. 5f, the γH2AX signal in the absence of peptide #66 is expressed as 100%, and bars represent the ratio of γH2AX signal in the presence of the peptide, to that in its absence.

[11] = tested on: γH2AX signal in HCC1806 cells; assay: γH2AX response to etoposide after peptide incubation (blot), HCC1806 cells; type: cell-based, human; settings: 16 h incubation with peptide at 10 μM, 25 μM etoposide
Method: as §5

[12] = 20 μM veliparib or 10 μM olaparib 24 h, then 20 μM etoposide 2 h
[13] = 24 h preincubation with 20 μM veliparib, 2 h after 20 μM etoposide

Compound: COc1cc([C@@H]2c3cc4c(cc3[C@@H](O[C@@H]3O[C@@H]5CO[C@@H](C)O[C@H]5[C@H](O)[C@H]3O)[C@H]3COC(=O)[C@H]23)OCO4)cc(OC)c1O [etoposide]
Time of peak interaction between IGFBP-3 and NONO (PLA) ([1]; 20 μM etoposide, 0 to 4 h): ~2 h
Time of peak interaction between IGFBP-3 and NONO (PLA) ([2]; 20 μM etoposide, 0 to 4 h): ~2 h
Activity in direct DNA end-joining assay ([3]; 20 μM etoposide 2 h, nuclear extracts (FIG. 4e)): increased activity

Compound: O=C(c1cc(Cc2n[nH]c(=O)c3ccccc23)ccc1F)N1CCN(C(=O)C2CC2)CC1 [olaparib]
Effect on loss of γH2AX signal over 4 h recovery (DSB repair) [4]: significantly prevented the loss of γH2AX signal
Effect on loss of γH2AX signal over 4 h recovery (DSB repair) [5]: significantly prevented the loss of γH2AX signal
Inhibition of end joining activity [3, 12]: approximately 50%
Inhibition of end joining activity [6, 12]: approximately 50%

Compound: CC(C)C[C@H](NC(=O)[C@H](Cc1c[nH]cn1)NC(=O)c1ccc2c(c1)C(=O)OC21c2ccc(N(C)C)cc2Oc2cc(N(C)C)ccc21)C(=O)N[C@@H](CCCCN)C(=O)N[C@@H](Cc1ccccc1)C(=O)N[C@@H](CC(C)C)C(=O)N[C@@H](CC(N)=O)C(=O)N[C@H](C(=O)N[C@@H](CC(C)C)C(=O)N[C@@H](CO)C(=O)N1CCC[C@H]1C(=O)N[C@@H](CCCNC(=N)N)C(=O)NCC(=O)O)C(C)C [peptide #66 labelled with 5-TAMRA] (5TAMRA-HLKFLNVLSPRG-OH)
Time of peak colocalization of labelled peptide and nuclei ([7]; fixed cell imaging, or 10 μM labelled peptide): 30 min
Association of labelled peptide with cell nuclei ([7]; live cell imaging, 2.5 μM or 10 μM labelled peptide): associated with cell nuclei at 40 and 60 min, and even more so after 90 min

Effect on IGFBP-3 complexes with NONO (immunoblotting after coIP) [8]: abolished
Compound: C[C@]1(c2nc3c(C(N)=O)cccc3[nH]2)CCCN1 [veliparib]
Effect on increase in IGFBP-3-NONO complexes (PLA) [1, 13]: abolished
Effect on increase in IGFBP-3-NONO complexes (PLA) [2, 13]: abolished
Effect on loss of γH2AX signal over 4 h recovery (DSB repair) [4]: significantly prevented the loss of γH2AX signal
Effect on loss of γH2AX signal over 4 h recovery (DSB repair) [5]: significantly prevented the loss of γH2AX signal
inhibition at 20 µM ([3]; Homo sapiens, MDA-MB-468): ~50%
inhibition at 20 µM ([6]; Homo sapiens, HCC1806): ~50%
Inhibition of cell survival (colony formation) ([9]; cells exposed to 100 nM etoposide): about one-third
Inhibition of cell survival (colony formation) ([9]; in the absence of etoposide): about one-third

Nuclear uptake of peptide ([7]; 5-TAMRA-labelled peptide, fixed and live cell imaging): rapid nuclear uptake
Compound: HLKFLNVLSPRG [Peptide #66]

Compound: MEDTLNHLKFLN [compound 64]
γH2AX signal (sustained DNA damage) compared to no peptide [10]: low γH2AX signal
γH2AX signal (sustained DNA damage) compared to no peptide [11]: low γH2AX signal

Compound: TLNHLKFLNVLS [compound 65]
γH2AX signal (sustained DNA damage) compared to no peptide [10]: sustained γH2AX signal
γH2AX signal (sustained DNA damage) compared to no peptide [11]: sustained γH2AX signal
